Reference: patent US20260091015A1, “TREATING IRON DEFICIENCY WITH FERRIC CARBOXYMALTOSE” (PHARMACOSMOS HOLDING A/S, priority 2018, published 2026)

Experiments:
[1] = Incidence of hypophosphatemia / s-phosphate in randomized open-label trials IDA-04 and IDA-05; type: in vivo, human
Description: Two prospective randomized, open-label, comparative trials were performed comparing the incidence of hypophosphatemia in relation to treatment with iron isomaltoside (“IIM”, tradename Monofer®, Monoferric®) and ferric carboxymaltose (“FCM”, trade name Injectafer, Ferinject) in adult human subjects with iron deficiency anaemia.
(§1) The trial was a randomized, open-label, comparative trial. Subjects with Iron Deficiency Anaemia (IDA) were randomized 1:1 to one treatment course of one of the following treatments: • Group A: iron isomaltoside 1000 (Monofer®, Pharmacosmos, Holbok, Denmark, termed iron isomaltoside in the following), 1000 mg at baseline • Group B: ferric carboxymaltose (Ferinject®/Injectafer®, Vifor Inc, Switzerland), 750 mg at baseline and day 7, cumulative dose: 1500 mg
The primary endpoint was the incidence of hypophosphatemia (defined as s-phosphate <2 mg/dL) at any time from baseline to day 35. […]
(§2) The following safety laboratory assessments were analysed: • S-phosphate: inorganic phosphorous forms an ammonium phosphomolybdate complex having the formula (NH4)3[PO4](MoO3)12 with ammonium molybdate in the presence of sulfuric acid. The complex was determined photometrically in the ultraviolet region (340 nm) of the spectrum using the Roche Modular and Cobas Analyzer. • iFGF23 and cFGF23: the human intact FGF23 was measured by the 2nd generation Elisa kit manufactured by Immonotropics, Inc, San Clemente, CA. […] The human C-terminal FGF23 was measured by the Elisa kit manufactured by Immonotropics, Inc, San Clemente, CA. […] After evaporation under nitrogen, the residue was reconstituted and analyzed using Liquid Chromatography (LC) with Tandem Mass Spectrometric detection (MS/MS). […]

human C-terminal FGF23 = test: C-terminal FGF23 (cFGF23) over time, two-site ELISA, trials IDA-04/IDA-05; type: in vivo
Description: as §1, with “1500 mg […]” for “1500 mg”
as §2

[2] = FCM 750 mg at baseline and day 7 vs JIM 1000 mg at baseline, subjects with IDA, baseline to day 35

cFGF23 on the first administration (human C-terminal FGF23; initially high due to underlying iron deficiency anemia): dropped sharply
cFGF23 on the second administration (human C-terminal FGF23; second administration (day 7)): increased
Substance: ferric carboxymaltose [FCM]
rate of hypophosphatemia, moderate to severe form with serum phosphate below 2 mg/dL [1, 2]: significantly higher
rate of hypophosphatemia, severe form of serum phosphate at or below 1.0 mg/dL [1, 2]: significantly higher
serum phosphate ([1]; after FCM treatment): decrease
